SMILES strings stand for the structures. In brackets after ≈: the same amount, converted by molar mass.

In one test the test system is HL60/S cells. The experiment in a line: IC50 of cells treated with drug (drug sensitivity). It counts as cell-based. The following applies: Homo sapiens, HL-60, do not express P-glycoprotein, read-out: IC₅₀.
The subject of the next test is HL60/Adr cells. Nature of the test: IC50 of cells treated with drug (drug sensitivity). Type of test: cell-based. As to conditions: Homo sapiens; HL60/Adr cells (resistant to doxorubicin); express P190, no P-glycoprotein; read-out: IC₅₀.

With `COc1cccc2c1C(=O)c1c(O)c3c(c(O)c1C2=O)C[C@@](O)(C(=O)CO)C[C@@H]3O[C@H]1C[C@H](N)[C@H](O)[C@H](C)O1` [Adriamycin, Doxorubicin], the IC50 came out at 0.011 µg/mL (≈ 0.0202 µM) with HL60/S cells and 2.2 µg/mL (≈ 4.05 µM) in the test on HL60/Adr cells.

Turning to `COc1cc([C@@H]2c3cc4c(cc3[C@@H](O[C@@H]3O[C@@H]5CO[C@@H](C)O[C@H]5[C@H](O)[C@H]3O)[C@H]3COC(=O)[C@H]23)OCO4)cc(OC)c1O` [Etoposide], the IC50 in the test on HL60/S cells was 0.39 µg/mL (≈ 0.663 µM); in the test on HL60/Adr cells, above 10 µg/mL.
